Assay results as given in patent US12351570B2 (MERCK PATENT GMBH, priority 2018, dated 2025).

test system: MDA-MB-231 cells; experiment: Extracellular lactate production inhibition after 4 h, MDA-MB-231; conditions: Homo sapiens, MDA-MB-231

Row | SMILES | IC50 [nM]
1 | COCCOC(=O)c1ccc(C#Cc2ccccc2NS(=O)(=O)c2c(C)ccc3cccnc23)cn1 [Compound 410, 2-methoxyethyl 5-{2-[2-(7-methylquinoline-8-sulfonamido)phenyl]ethynyl}pyridine-2-carboxylate] | 100 to 1000
2 | CCc1ccc(S(=O)(=O)Nc2ccccc2C#Cc2ccc(C(=O)O)nc2)c2ncccc12 [Compound 411, 5-{2-[2-(5-ethylquinoline-8-sulfonamido)phenyl]ethynyl}pyridine-2-carboxylic acid] | 100 to 1000
3 | COCCOC(=O)c1cc(OC)c(C#Cc2ccccc2NS(=O)(=O)c2c(C)ccc3cccnc23)cn1 [Compound 412, 2-methoxyethyl 4-methoxy-5-{2-[2-(7-methylquinoline-8-sulfonamido)phenyl]ethynyl}pyridine-2-carboxylate] | 10 to 100
4 | COc1ccc(S(=O)(=O)Nc2ccc(C)cc2C#Cc2ccc(C(=O)O)nc2)c(C)c1C [Compound 413, 5-{2-[2-(4-methoxy-2,3-dimethylbenzenesulfonamido)-5-methylphenyl]ethynyl}pyridine-2-carboxylic acid] | 10 to 100
5 | CCCc1ccc(S(=O)(=O)Nc2ccccc2C#Cc2ccc(C(=O)O)nc2)c2ncccc12 [Compound 414, 5-{2-[2-(5-propylquinoline-8-sulfonamido)phenyl]ethynyl}pyridine-2-carboxylic acid] | 10 to 100
6 | Cc1ccc2cccnc2c1S(=O)(=O)Nc1ccccc1C#Cc1cnc(C(=O)O)c2c1NCCN2 [Compound 415, 8-{2-[2-(7-methylquinoline-8-sulfonamido)phenyl]ethynyl}-1H,2H,3H,4H-pyrido[3,4-b]pyrazine-5-carboxylic acid] | 100 to 1000
7 | Cc1ccc2cccnc2c1S(=O)(=O)Nc1ccc(C(C)C)cc1C#Cc1ccc(C(=O)O)nc1 [Compound 416, 5-{2-[2-(7-methylquinoline-8-sulfonamido)-5-(propan-2-yl)phenyl]ethynyl}pyridine-2-carboxylic acid] | 100 to 1000
8 | CCc1ccc(NS(=O)(=O)c2c(C)ccc3cccnc23)c(C#Cc2ccc(C(=O)O)nc2)c1 [Compound 417, 5-{2-[5-ethyl-2-(7-methylquinoline-8-sulfonamido)phenyl]ethynyl}pyridine-2-carboxylic acid] | 1 to 10
9 | COc1cc(C(=O)O)ncc1C#Cc1ccccc1NS(=O)(=O)c1cccc2c(N(C)C)ccnc12 [Compound 418, 5-[2-(4-Dimethylamino-quinoline-8-sulfonylamino)-phenylethynyl]-4-methoxy-pyridine-2-carboxylic acid] | 100 to 1000
10 | CNc1ccnc2c(S(=O)(=O)Nc3ccccc3C#Cc3cnc(C(=O)O)cc3OC)cccc12 [Compound 419, 4-Methoxy-5-[2-(4-methylamino-quinoline-8-sulfonylamino)-phenylethynyl]-pyridine-2-carboxylic acid] | 1000 to 100000
11 | CN(C)c1ccnc2c(S(=O)(=O)Nc3ccccc3C#Cc3ccc(C(=O)O)nc3)cccc12 [Compound 420, 5-[2-(4-Dimethylamino-quinoline-8-sulfonylamino)-phenylethynyl]-pyridine-2-carboxylic acid] | 1000 to 100000
12 | Cc1cc(C(=O)O)ncc1C#Cc1ccccc1NS(=O)(=O)c1cccc2c(N(C)C)ccnc12 [Compound 421, 5-[2-(4-Dimethylamino-quinoline-8-sulfonylamino)-phenylethynyl]-4-methyl-pyridine-2-carboxylic acid] | 100 to 1000
13 | O=C(O)c1ccc(C#Cc2ccccc2NS(=O)(=O)c2cccc3c(N4CCOCC4)ccnc23)cn1 [Compound 422, 5-[2-(4-Morpholin-4-yl-quinoline-8-sulfonylamino)-phenylethynyl]-pyridine-2-carboxylic acid] | 1000 to 100000
14 | CNc1ccnc2c(S(=O)(=O)Nc3ccccc3C#Cc3ccc(C(=O)O)nc3)cccc12 [Compound 423, 5-[2-(4-Methylamino-quinoline-8-sulfonylamino)-phenylethynyl]-pyridine-2-carboxylic acid] | 1000 to 100000
15 | CS(=O)(=Nc1ccccc1C#Cc1ccc(C(=O)O)nc1)c1ccccc1 (centres unmarked) [Compound 424, 5-[2-(2-{[methyl(oxo)phenyl-λ6-sulfanylidene]amino}phenyl)ethynyl] pyridine-2-carboxylic acid] | 1000 to 100000
16 | CNc1ccnc2c(S(=O)(=O)Nc3ccccc3C#Cc3cnc(C(=O)O)cc3C)cccc12 [Compound 425, 4-Methyl-5-[2-(4-methylamino-quinoline-8-sulfonylamino)-phenylethynyl]-pyridine-2-carboxylic acid] | 1000 to 100000
17 | CCNc1ccnc2c(S(=O)(=O)Nc3ccccc3C#Cc3ccc(C(=O)O)nc3)cccc12 [Compound 426, 5-[2-(4-Ethylamino-quinoline-8-sulfonylamino)-phenylethynyl]-pyridine-2-carboxylic acid] | 1000 to 100000
18 | CC(C)Nc1ccnc2c(S(=O)(=O)Nc3ccccc3C#Cc3ccc(C(=O)O)nc3)cccc12 [Compound 427, 5-[2-(4-Isopropylamino-quinoline-8-sulfonylamino)-phenylethynyl]-pyridine-2-carboxylic acid] | 1000 to 100000
19 | COc1ccc(S(C)(=O)=Nc2ccccc2C#Cc2ccc(C(=O)O)nc2)cc1 (centres unmarked) [Compound 428, 5-[2-(2-{[(4-methoxyphenyl)(methyl)oxo-λ6-sulfanylidene]amino}phenyl)ethynyl] pyridine-2-carboxylic acid] | 1000 to 100000
20 | CS(=O)(=Nc1ccccc1C#Cc1ccc(C(=O)O)nc1)c1cccc2cccnc12 (centres unmarked) [Compound 429, 5-[2-(2-{[methyl(oxo)(quinolin-8-yl)-λ6-sulfanylidene]amino}phenyl)ethynyl] pyridine-2-carboxylic acid] | 1000 to 100000
21 | COc1ccc(NS(=O)(=O)c2ccccc2C#Cc2ccc(C(=O)O)nc2)c(C)c1C [Compound 430, 5-(2-{2-[(4-methoxy-2,3-dimethylphenyl)sulfamoyl]phenyl}ethynyl)pyridine-2-carboxylic acid] | 1000 to 100000
22 | CS(=O)(=Nc1ccccc1C#Cc1ccc(C(=O)O)nc1)c1ccc(F)cc1 (centres unmarked) [Compound 431, 5-[2-(2-{[(4-fluorophenyl)(methyl)oxo-λ6-sulfanylidene]amino}phenyl)ethynyl] pyridine-2-carboxylic acid] | 1000 to 100000
23 | O=C(O)c1ccc(C#Cc2ccccc2S(=O)(=O)Nc2cccc3cccnc23)cn1 [Compound 432, 5-(2-{2-[(quinolin-8-yl)sulfamoyl]phenyl}ethynyl)pyridine-2-carboxylic acid] | 1000 to 100000
24 | COc1ccccc1S(C)(=O)=Nc1ccccc1C#Cc1ccc(C(=O)O)nc1 (centres unmarked) [Compound 433, 5-[2-(2-{[(2-methoxyphenyl)(methyl)oxo-λ6-sulfanylidene]amino}phenyl)ethynyl] pyridine-2-carboxylic acid] | 1000 to 100000
25 | COc1cccc(S(C)(=O)=Nc2ccccc2C#Cc2ccc(C(=O)O)nc2)c1 (centres unmarked) [Compound 434, 5-[2-(2-{[(3-methoxyphenyl)(methyl)oxo-λ6-sulfanylidene]amino}phenyl)ethynyl] pyridine-2-carboxylic acid] | 100 to 1000
26 | Cc1cccc(S(C)(=O)=Nc2ccccc2C#Cc2ccc(C(=O)O)nc2)c1 (centres unmarked) [Compound 435, 5-[2-(2-{[methyl(3-methylphenyl)oxo-λ6-sulfanylidene]amino}phenyl)ethynyl] pyridine-2-carboxylic acid] | 1000 to 100000
